Data reported in patent publication US20020035061A1, “COMPOSITIONS AND METHODS FOR TREATING INFECTIONS USING CATIONIC PEPTIDES ALONE OR IN COMBINATION WITH ANTIBIOTICS” (priority 1996, published 2002).
Like-named read-outs stand apart in the source and are kept apart here.

Key:
Type in all cases: cell-based
A. calcoaceticus = test system: A. calcoaceticus
E. cloacae = test system: E. cloacae
E. coli = conditions: for Peptide MIC values: agarose dilution
E. faecalis = test system: E. faecalis
E. faecium = conditions: agarose dilution
H. influenzae = assay: Agarose dilution assay (MIC)
K. pneumoniae = test system: K. pneumoniae
P. aeruginosa = conditions: for Peptide MIC values: agarose dilution
P. vulgaris = assay: Agarose dilution assay (MIC); conditions: agarose dilution; P. vulgaris ATCC 13315
S. aureus = conditions: for Peptide MIC values: agarose dilution
S. epidermidis = S. epidermidis strain SE010
S. maltophilia = test system: S. maltophilia
S. marcescens = conditions: for Peptide MIC values: agarose dilution
S. pneumoniae = assay: Agarose dilution assay (MIC); conditions: for MIC: S. pneumoniae strain SBSPN3; for Peptide MIC values: agarose dilution
bacterial isolates = assay: microbe, parasite or virus in culture
[1] = test system: inherently resistant microorganisms; assay: microbe, parasite or virus in culture
S. pyogenes = assay: Agarose dilution assay (MIC); conditions: S. pyogenes strain SPY005
[2] = test system: microorganisms with acquired resistance; assay: microbe, parasite or virus in culture; conditions: for Peptide MIC Alone: Piperacillin section; for FIC: peptide + Piperacillin

ILKKWPWWPWRK [MBI 11B4CN]
0.09: FIC (bacterial isolates; peptide + Mupirocin, E. coli SBECO2)
1 µg/mL: Peptide MIC values (S. aureus; S. aureus ATCC 29213)
8 µg/mL: Peptide MIC values (E. coli; E. coli ESS) | Peptide MIC values (E. coli; E. coli NCTC 10418) | Peptide MIC values (E. faecium) | Peptide MIC values (S. aureus; S. aureus MRSA17) | Peptide MIC Alone (bacterial isolates; E. coli SBECO1, Mupirocin section) | Peptide MIC + Mupirocin ([1]; E. coli)
4 µg/mL: Peptide MIC values (S. aureus; S. aureus MRSA9) | MIC (S. epidermidis)
2 µg/mL: MIC (S. aureus; S. aureus strain SA004) | Peptide MIC + Mupirocin (bacterial isolates; E. coli SBECO2)
30 µg/mL: Mupirocin MIC + Peptide (bacterial isolates; E. coli SBECO1) | Mupirocin MIC + Peptide (bacterial isolates; E. coli SBECO2)
0.36: FIC (bacterial isolates; peptide + Mupirocin, E. coli SBECO1)
16 µg/mL: MIC (E. coli; E. coli strain ECO003) | MIC (E. faecalis; E. faecalis strain EFS002) | Peptide MIC values (S. aureus; S. aureus SA206) | Peptide MIC Alone ([1]; E. coli, Mupirocin section)
32 µg/mL: Peptide MIC values (E. coli; E. coli ATCC 25922) | Peptide MIC values (S. aureus; S. aureus MRSA13) | Peptide MIC Alone (bacterial isolates; E. coli SBECO2, Mupirocin section)
0.5 µg/mL: Peptide MIC + Mupirocin (bacterial isolates; E. coli SBECO1)
64 µg/mL: MIC (S. maltophilia; S. maltophilia strain SMA002) | Peptide MIC values (S. pneumoniae; S. pneumoniae ATCC 49619)
>128 µg/mL: MIC (A. calcoaceticus; A. calcoaceticus strain AC001) | MIC (E. cloacae; E. cloacae strain ECL007) | MIC (H. influenzae; H. influenzae strain HIN002) | MIC (P. aeruginosa; P. aeruginosa strain PA006) | Peptide MIC values (P. aeruginosa; P. aeruginosa ATCC 27853) | Peptide MIC values (P. aeruginosa; P. aeruginosa NCTC 10662) | Peptide MIC values (P. vulgaris) | MIC (S. marcescens; S. marcescens strain SBSM2) | MIC (S. marcescens; S. marcescens strain SMS004) | Peptide MIC values (S. marcescens; S. marcescens SM76) | Peptide MIC values (S. marcescens; S. marcescens SM82) | Peptide MIC values (S. pneumoniae; S. pneumoniae 60120)
128 µg/mL: MIC (K. pneumoniae; K. pneumoniae strain KP002) | MIC (S. pneumoniae) | Peptide MIC values (S. pneumoniae; S. pneumoniae 406LE8)
0.53: FIC ([1]; peptide + Mupirocin, E. coli)

ILRWVWWVWRRK [MBI 11F4CN]
0.25 µg/mL: Piperacillin MIC + Peptide (bacterial isolates; H. influenzae SB1)
32 µg/mL: MIC, Peptide (P. aeruginosa; P. aeruginosa PA004, unmodified parent peptide) | MIC (P. aeruginosa; P. aeruginosa strain PA020) | MIC (S. pyogenes) | Piperacillin MIC + Peptide (bacterial isolates; S. maltophilia 2)
0.25: FIC (bacterial isolates; peptide + Piperacillin, S. marcescens 1)
1 µg/mL: MIC (S. aureus; S. aureus strain SA007)
0.38: FIC (bacterial isolates; peptide + Piperacillin, P. aeruginosa 7) | FIC ([2]; P. aeruginosa 7)
0.125 µg/mL: Peptide MIC + Piperacillin (bacterial isolates; H. influenzae SB1)
0.75: FIC ([2]; H. influenzae 1)
0.50: FIC (bacterial isolates; peptide + Piperacillin, H. influenzae SB1) | FIC ([2]; S. maltophilia 2)
0.5 µg/mL: Peptide MIC + Piperacillin (bacterial isolates; S. maltophilia 2) | Peptide MIC + Piperacillin (bacterial isolates; S. marcescens 1)
16 µg/mL: MIC (A. calcoaceticus; A. calcoaceticus strain AC003) | MIC (E. cloacae; E. cloacae strain ECL006) | MIC, Peptide (S. maltophilia; S. maltophilia SMA002, unmodified parent peptide) | MIC (S. maltophilia; S. maltophilia strain SMA006) | Peptide MIC Alone (bacterial isolates; E. cloacae 10, Piperacillin section) | Peptide MIC Alone (bacterial isolates; S. maltophilia 2, Piperacillin section) | Peptide MIC Alone ([2]; E. cloacae 10) | Piperacillin MIC + Peptide ([2]; H. influenzae 1) | Piperacillin MIC + Peptide ([2]; S. maltophilia 2) | Peptide MIC Alone ([2]; S. maltophilia 2) | Piperacillin MIC + Peptide ([2]; S. marcescens 1)
8 µg/mL: MIC, Peptide (E. coli; E. coli ECO005, unmodified parent peptide) | MIC (E. coli; E. coli strain ECO001) | MIC (E. faecalis; E. faecalis strain EFS004) | MIC (K. pneumoniae; K. pneumoniae strain KP001) | Peptide MIC + Piperacillin (bacterial isolates; E. cloacae 10) | Peptide MIC + Piperacillin (bacterial isolates; P. aeruginosa 7) | Peptide MIC + Piperacillin ([2]; E. cloacae 10) | Peptide MIC + Piperacillin ([2]; P. aeruginosa 7)
2 µg/mL: MIC, Peptide (E. faecalis; E. faecalis EFS008, unmodified parent peptide) | MIC, Peptide (S. aureus; S. aureus SA014, unmodified parent peptide) | MIC (S. epidermidis) | Peptide MIC + Piperacillin (bacterial isolates; S. aureus 19 MRSA) | Peptide MIC + Piperacillin ([1]; S. aureus MRSA)
0.52: FIC (bacterial isolates; peptide + Piperacillin, E. cloacae 10) | FIC ([2]; E. cloacae 10)
4 µg/mL: MIC, Peptide (A. calcoaceticus; A. calcoaceticus AC002, unmodified parent peptide) | MIC, Peptide (K. pneumoniae; K. pneumoniae KP001, unmodified parent peptide) | Piperacillin MIC + Peptide (bacterial isolates; E. cloacae 10) | Piperacillin MIC + Peptide (bacterial isolates; S. aureus 19 MRSA) | Peptide MIC Alone (bacterial isolates; S. aureus 19 MRSA, Piperacillin section) | Peptide MIC Alone ([1]; S. aureus MRSA, Piperacillin section) | Piperacillin MIC + Peptide ([2]; E. cloacae 10) | Peptide MIC + Piperacillin ([2]; P. aeruginosa 23) | Peptide MIC + Piperacillin ([2]; S. maltophilia 2) | Peptide MIC + Piperacillin ([2]; S. marcescens 1)
0.31: FIC (bacterial isolates; peptide + Piperacillin, P. aeruginosa 23) | FIC ([2]; P. aeruginosa 23)
64 µg/mL: Piperacillin MIC + Peptide (bacterial isolates; P. aeruginosa 7) | Peptide MIC Alone (bacterial isolates; P. aeruginosa 7, Piperacillin section) | Piperacillin MIC + Peptide (bacterial isolates; P. aeruginosa 23) | Peptide MIC Alone (bacterial isolates; P. aeruginosa 23, Piperacillin section) | Piperacillin MIC + Peptide (bacterial isolates; S. marcescens 1) | Peptide MIC + Piperacillin ([2]; H. influenzae 1) | Piperacillin MIC + Peptide ([2]; P. aeruginosa 7) | Peptide MIC Alone ([2]; P. aeruginosa 7) | Piperacillin MIC + Peptide ([2]; P. aeruginosa 23) | Peptide MIC Alone ([2]; P. aeruginosa 23)
0.08: FIC ([2]; S. marcescens 1)
0.53: FIC (bacterial isolates; peptide + Piperacillin, S. aureus 19 MRSA) | FIC (bacterial isolates; peptide + Piperacillin, S. maltophilia 2) | FIC ([1]; peptide + Piperacillin, S. aureus MRSA)
>128 µg/mL: MIC (H. influenzae; H. influenzae strain HIN003) | MIC (S. marcescens; S. marcescens strain SBSM1) | MIC (S. pneumoniae) | Peptide MIC Alone (bacterial isolates; H. influenzae SB1, Piperacillin section) | Peptide MIC Alone (bacterial isolates; S. marcescens 1, Piperacillin section) | Peptide MIC Alone ([2]; H. influenzae 1) | Peptide MIC Alone ([2]; S. marcescens 1)
